The text below walks through data of patent US20250387375A1, “SOFALCONE DERIVATIVES AND MEDICAL USE THEREOF” (KAOHSIUNG MEDICAL UNIVERSITY, priority 2024, published 2025).

Test [1] has as its system human platelet suspension (platelet aggregation caused by collagen). Kind of test: Platelet aggregation reaction test, collagen-induced. Format: cell-based. Conditions: read-out: Collagen IC 50. Here is the method: (§1) Blood samples were collected from healthy donors, and acid-citrate-dextrose (ACD) solution was used as an anticoagulant. The blood samples were centrifuged to obtain platelets, and residual plasma was removed by washing to prepare platelet suspension.
(§2) In the experimental method, a platelet aggregometer (Chrono-Log Co., Havertown, PA, USA) was used for tests. The compound to be tested was added to the platelet suspension and reacted for 3 minutes at 37° C. with stirring (1200 rpm). Then, platelet stimulator U46619 or collagen was added to initiate platelet aggregation, and the test time was 5 minutes. The principle of the platelet aggregation test was: when platelets were stimulated to induce aggregation reaction, the light transmission of the platelet suspension would increase; by calculating changes in light transmission of the platelet suspension before and after being stimulated, the percentage of platelet aggregation could be obtained.

Test [2] relates to human platelet suspension (platelet aggregation caused by TxA2 agonist U46619). Kind of test: Platelet aggregation reaction test, U46619-induced. Format: cell-based. Here is the method: as §1, §2

SMILES strings stand for the structures. Bounds are passed on as bounds.

Take `CCOC(=O)COc1ccccc1C(=O)C=Cc1ccc(O)cc1` [Compound 47]: the IC50 in test [1] is 16.4 µM; in test [2], 35.2 µM.

For `O=C(O)CCCCCOc1ccccc1C(=O)C=Cc1ccccc1` [Compound 77], the IC50 was determined as 43.6 µM in test [1] and 5.54 µM in test [2].

Take `O=C(O)COc1cc(OCc2ccc(F)cc2)ccc1C(=O)C=Cc1ccc(OCc2ccc(F)cc2)cc1` [Compound 89]: the IC50 in test [1] was 33.9 µM; in test [2] it was 3.59 µM.

Consider `O=C(O)CCCCCOc1ccccc1C(=O)C=Cc1nccs1` [Compound 80], for which the IC50 in test [1] is 62.7 µM; in test [2], 51.5 µM.

Turning to `CCOC(=O)CCCCCCCOc1ccccc1C(=O)C=Cc1ccccc1` [Compound 106], the IC50 in test [1] came out at 13.1 µM; in test [2] it was 2.84 µM.

`CCCCOc1ccc(C=CC(=O)c2ccc(OCCCC)cc2OCC(=O)O)cc1` [Compound 94]: the IC50 in test [1] stood at 63.2 µM; in test [2] it was 40.7 µM.

Take `CCOC(=O)CCCCCOc1ccccc1C(=O)C=Cc1ccccc1F` [Compound 38]: the values for the IC50 in test [1] and in test [2] were 0.07 µM and 0.03 µM, respectively.

In the case of `CC(C)CCOc1ccc(CCC(=O)c2ccc(OCCC(C)C)cc2OCC(=O)O)cc1` [Compound 100], the values for the IC50 in test [1] and in test [2] were 66.8 µM and 1.73 µM, respectively.

`COC(=O)COc1cc(OCc2ccc(OC)cc2)ccc1C(=O)C=Cc1ccc(OCc2ccc(OC)cc2)cc1` [Compound 87]: the IC50 in test [1] and in test [2] was above 100 µM in each case.

`Nc1ccsc1C=CC(=O)c1ccccc1OCCCCCC(=O)O` [Compound 78]: the IC50 in test [1] was 7.7 µM; in test [2], 5.87 µM.

As to `O=C(O)COc1ccccc1C(=O)C=Cc1cccnc1` [Compound 60], the IC50 in test [1] worked out at 39.8 µM; in test [2], 29.3 µM.

As for `CCOC(=O)COc1ccccc1C(=O)C=Cc1cccs1` [Compound 66], the IC50 in test [1] was found to be 2.86 µM; in test [2], 70.2 µM.

As for `CCCCCCCCCCOc1ccc(C=CC(=O)c2ccc(OCCCCCCCCCC)cc2OCC(=O)OC)cc1` [Compound 93], the IC50 in test [1] and in test [2] was above 50 µM in each case.

Consider `COC(=O)COc1cc(OC(C)=O)ccc1C(=O)C=Cc1ccc(OC(C)=O)cc1` [Compound 81], for which the IC50 in test [1] is 23.8 µM; in test [2] it was 28 µM.

For the compound `O=C(O)COc1ccccc1C(=O)C=Cc1ccccn1` [Compound 59], the IC50 in test [1] was determined as 33.8 µM; in test [2], 72.1 µM.

As for `CCOC(=O)COc1cc(O)ccc1C(=O)C=Cc1ccc(O)c(O)c1` [Compound 41], the IC50 in test [1] amounted to 15.2 µM; in test [2] it was 34.9 µM.

`COC(=O)COc1cc(OCC=C(C)C)ccc1C(=O)C=Cc1ccc(OCC=C(C)C)cc1` [Compound 68]: the IC50 in test [1] and in test [2] was above 100 µM throughout.

Regarding `O=C(O)COc1cc(F)ccc1C(=O)C=Cc1ccc(F)cc1` [Compound 33], the values for the IC50 in test [1] and in test [2] were 12.2 µM and 2.15 µM, respectively.

`CCCCCCOc1ccc(C=CC(=O)c2ccc(OCCCCCC)cc2OCC(=O)OC)cc1` [Compound 91]: the IC50 in test [1] and in test [2] was above 50 µM each time.

With `O=C(O)CCCCCOc1ccccc1C(=O)C=Cc1ccccc1` [Compound 36], the IC50 in test [1] turned out to be 0.13 µM; in test [2], 0.19 µM.

On to `O=C(O)CCCCCOc1ccccc1C(=O)CCc1cccc(F)c1` [Compound 50], for which the IC50 in test [1] stood at 0.33 µM; in test [2] it was 0.57 µM.

`CCOC(=O)COc1cc(O)ccc1C(=O)C=Cc1cccc(O)c1` [Compound 40]: the IC50 in test [1] was determined as 10.3 µM; in test [2] it was 25.9 µM.

Regarding `CC(C)=CCCC(C)=CCOc1ccc(C(=O)C=Cc2ccccc2)c(OCCCC(=O)O)c1` [Compound 7], the IC50 in test [1] stood at 4.03 µM; in test [2], 0.49 µM.

As for `CCOC(=O)CCCOc1cc(OCC=C(C)C)ccc1C(=O)C=Cc1cccs1` [Compound 64], the IC50 in test [1] amounted to 3.85 µM; in test [2], 5.87 µM.

For the compound `CCOC(=O)CCCCCOc1ccccc1C(=O)C=Cc1cccc(F)c1` [Compound 39], the values for the IC50 in test [1] and in test [2] were 0.07 µM and 0.05 µM, respectively.

Take `CC(C)=CCOc1ccc(C(=O)/C=C/c2ccccc2)c(OCC(=O)O)c1` [Compound 22]: the IC50 was 12.8 µM in test [1] and 43.2 µM in test [2].

Regarding `CC(C)=CCOc1ccc(C=CC(=O)c2ccc(OCC=C(C)C)cc2OCCCCC(=O)O)cc1` [Compound 37], the values for the IC50 in test [1] and in test [2] were 1.58 µM and 0.23 µM, respectively.

Regarding `CC(C)=CCOc1ccc(C=CC(=O)c2ccccc2OCCCCC(=O)O)cc1` [Compound 102], the results for the IC50 in test [1] and in test [2] were 3.14 µM and 2.42 µM, respectively.

Turning to `CCOC(=O)COc1ccccc1C(=O)C=Cc1ccco1` [Compound 65], the figures for the IC50 in test [1] and in test [2] were 3.13 µM and 78.4 µM, respectively.

Turning to `CCOC(=O)COc1ccccc1C(=O)C=Cc1ccc(O)cc1` [Compound 42], the figures for the IC50 in test [1] and in test [2] were 1.59 µM and 38.7 µM, respectively.

For the compound `CCOC(=O)CCCCOc1ccccc1C(=O)C=Cc1ccccc1` [Compound 110], the figures for the IC50 in test [1] and in test [2] were 4.48 µM and 2.9 µM, respectively.

Take `O=C(O)CCCCCOc1cc(F)ccc1C(=O)/C=C/c1ccccc1` [Compound 11]: the IC50 came to 5.38 µM in test [1] and 54.4 µM in test [2].

Regarding `O=C(O)CCCCCOc1ccccc1C(=O)CCc1ccccc1` [Compound 49], the IC50 came to 4.85 µM in test [1] and 0.5 µM in test [2].

As for `CCOC(=O)CCCCCCOc1ccccc1C(=O)C=Cc1ccccc1` [Compound 104], the IC50 came to 5.31 µM in test [1] and 13.5 µM in test [2].

For `CCOC(=O)CCCCCOc1ccccc1C(=O)C=Cc1ccco1` [Compound 62], the IC50 was 0.58 µM in test [1] and 0.48 µM in test [2].

As to `COC(=O)CCCCCOc1ccccc1C(=O)C=Cc1ccccc1` [Compound 113], the figures for the IC50 in test [1] and in test [2] were 0.35 µM and 0.57 µM, respectively.

Take `CCOC(=O)CCCCCOc1ccccc1C(=O)C=Cc1ccccn1` [Compound 63]: the IC50 was found to be 6.05 µM in test [1] and 4.57 µM in test [2].

Consider `CC(C)=CCOc1ccc(C(=O)/C=C/c2ccccc2F)c(OCCCC(=O)O)c1` [Compound 13], for which the IC50 came out at 0.65 µM in test [1] and 0.51 µM in test [2].

On to `CC(C)=CCOc1ccc(CCC(=O)c2ccc(OCC=C(C)C)cc2OCCCC(=O)O)cc1` [Compound 75], for which the IC50 in test [1] was 1.3 µM; in test [2], 0.35 µM.

In the case of `CC(C)=CCOc1ccc(C(=O)/C=C/c2cccc(F)c2)c(OCCCC(=O)O)c1` [Compound 14], the IC50 was determined as 7.05 µM in test [1] and 5.18 µM in test [2].

Take `COC(=O)COc1cc(OCC(=O)c2ccccc2)ccc1C(=O)C=Cc1ccc(OCC(=O)c2ccccc2)cc1` [Compound 82]: the figures for the IC50 in test [1] and in test [2] were at least 100 µM and above 100 µM, respectively.

Regarding `O=C(O)CCCCCOc1ccccc1C(=O)/C=C/c1cccc(F)c1` [Compound 2], the IC50 in test [1] and in test [2] was 0.05 µM throughout.

Turning to `CC(C)=CCOc1ccc(/C=C/C(=O)c2ccc(F)cc2OCCCC(=O)O)cc1` [Compound 9], the IC50 in test [1] stood at 5.14 µM; in test [2] it was 5.44 µM.

With `CC1=C(C)C(=O)C(C(CCCCCC(=O)O)c2ccccc2)=C(C)C1=O` (stereo not drawn) [Seratrodast, reference compound], the IC50 in test [1] was 5.27 µM; in test [2] it was 0.71 µM.

Consider `CCOC(=O)COc1cc(O)ccc1C(=O)C=Cc1ccc([N+](=O)[O-])cc1` [Compound 45], for which the IC50 in test [1] and in test [2] was above 20 µM throughout.
